Results taken from US4562287A, “2-(4-Biphenylyl)-4-hexenoic acid and derivatives thereof having anti-inflammatory activity” (priority 1983, dated 1985).

Experiments:
[1] = system: Carragenine induced edema; assay: Carragenine induced edema, first test (Table 2); assay type: in vivo
Description: |ANTI-INFLAMMATORY ACTIVITY. |Carragenine induced edema, first test.

Carragenine edema = assay: Edema induced by different substances: carragenine (Table 3); assay type: in vivo
Description: (§1) |Edema induced by different substances.

Kaolin edema = assay: Edema induced by different substances: kaolin (Table 3); assay type: in vivo
Description: as §1

Yeast edema = assay: Edema induced by different substances: yeast (Table 3); assay type: in vivo
Description: |Edema induced by different substances. | % edema inhibition

Serotonin edema = assay: Edema induced by different substances: serotonin (Table 3); assay type: in vivo
Description: as §1

Dextrose edema = assay: Edema induced by different substances: dextrose (Table 3); assay type: in vivo
Description: as §1

[2] = system: Carragenine induced edema; assay: Anti-inflammatory activity on carragenine induced edema (Table 11); assay type: in vivo; settings: for % inhibition: 50 mg/Kg p.o.
in vivo = settings: po, rat, p.o., read-out: DL50 (the source's name)
[3] = system: Carragenine induced edema; assay: Activity on carragenine induced edema (Table 9); assay type: in vivo
Description: |Activity on carragenine induced edema.

[4] = system: Hot plate, endurance time at 52° C.; assay: Analgesic activity, Hot plate (I); assay type: in vivo; settings: 50 mg/Kg p.o., 2 hours
Method: (§2) Dose endurance time at 52° C. over checks

[5] = system: Hot plate, endurance time at 52° C.; assay: Analgesic activity, Hot plate (II); assay type: in vivo
Method: as §2

pain threshold = assay: Analgesic activity, RANDALL-SELLITO pain threshold; assay type: in vivo
Description: | RANDALL-SELLITO pain threshold

[6] = system: capillary permeability (Histamine); assay: Effect on the capillary permeability, histamine; assay type: in vivo; settings: 200 mg/Kg p.o., checks 21.33, 200 mg/kg
Description: (§3) |Effect on the capillary permeability

[7] = system: capillary permeability (Dextran); assay: Effect on the capillary permeability, dextran; assay type: in vivo; settings: 200 mg/Kg p.o., checks 14.83, 200 mg/kg
Description: as §3

[8] = system: Cotton-pellets induced granuloma; assay: Cotton-pellets induced granuloma; assay type: in vivo; settings: 200 mg/Kg p.o.
Description: | Cotton-pellets induced granuloma.

ulcerogenic effect = assay: Ulcerogenic effect; assay type: in vivo; settings: dose 50 mg
[9] = system: capillary permeability (Serotonin); settings: 200 mg/Kg p.o., checks 18.16

## CCCCC1C(=O)N(c2ccccc2)N(c2ccccc2)C1=O [PHENYL-BUTAZONE, phenylbutazone, reference compound]
[1]; 75 mg/Kg p.o.
  % inhibition: 43%
[1]; 150 mg/Kg p.o.
  % inhibition: 46%
Carragenine edema; 50 mg/Kg p.o.
  % edema inhibition: 13%
Carragenine edema; 100 mg/Kg p.o.
  % edema inhibition: 32%
Carragenine edema; 200 mg/Kg p.o.
  % edema inhibition: 61%
Kaolin edema; 50 mg/Kg p.o.
  % edema inhibition: 41%
Kaolin edema; 100 mg/Kg p.o.
  % edema inhibition: 40%
Kaolin edema; 200 mg/Kg p.o.
  % edema inhibition: 53%
Yeast edema; 50 mg/Kg p.o.
  % edema inhibition: 7%
Yeast edema; 100 mg/Kg p.o.
  % edema inhibition: 23%
Yeast edema; 200 mg/Kg p.o.
  % edema inhibition: 18%
Serotonin edema; 50 mg/Kg p.o.
  % edema inhibition: 24%
Serotonin edema; 100 mg/Kg p.o.
  % edema inhibition: 12%
Serotonin edema; 200 mg/Kg p.o.
  % edema inhibition: 25%
Dextrose edema; 50 mg/Kg p.o.
  % edema inhibition: 0%
Dextrose edema; 100 mg/Kg p.o.
  % edema inhibition: 0%
Dextrose edema; 200 mg/Kg p.o.
  % edema inhibition: 18%

## CC(=O)Oc1ccccc1C(=O)O [Acetylsalicylic acid, reference compound]
[2]
  % inhibition: 23%

## CC=CCC(C(=O)O)c1ccc(-c2ccc(Cl)cc2)cc1 (racemic) [SCR 158, 2-[4-biphenylyl-(4' chloro)]4-hexenoic acid]
In vivo
  LD50: 940 mg/kg
[3]; 56 mg/Kg p.o.
  Inhibition %: 0%
[3]; 85 mg/Kg p.o.
  Inhibition %: 16%
[3]; 127 mg/Kg p.o.
  Inhibition %: 14%

## CC=CCC(C(=O)O)c1ccc(-c2ccc(F)cc2)cc1 (stereo not shown) [SCR 159, 2-[4-biphenylyl-(4' fluoro)]4-hexenoic acid]
In vivo
  LD50: 900 mg/kg
[3]; 53 mg/Kg p.o.
  Inhibition %: 29%
[3]; 80 mg/Kg p.o.
  Inhibition %: 26%
[3]; 120 mg/Kg p.o.
  Inhibition %: 26%
[4]
  endurance time at 52° C. over checks: 38
[5]; Hot plate (II), 35,6 mg/Kg p.o., 1 hour
  endurance time at 52° C. over checks: 22
[5]; Hot plate (II), 35,6 mg/Kg p.o., 2 hours
  endurance time at 52° C. over checks: 43
[5]; Hot plate (II), 53,45 mg/Kg p.o., 1 hour
  endurance time at 52° C. over checks: 45
[5]; Hot plate (II), 53,45 mg/Kg p.o., 2 hours
  endurance time at 52° C. over checks: 29
[5]; Hot plate (II), 80,18 mg/Kg p.o., 1 hour
  endurance time at 52° C. over checks: 26
Pain threshold; 23,7 mg/Kg p.o., 1 hour
  RANDALL-SELLITO pain threshold over checks: 55
Pain threshold; 23,7 mg/Kg p.o., 2 hours
  RANDALL-SELLITO pain threshold over checks: 7
Pain threshold; 35,6 mg/Kg p.o., 1 hour
  RANDALL-SELLITO pain threshold over checks: 49
Pain threshold; 35,6 mg/Kg p.o., 2 hours
  RANDALL-SELLITO pain threshold over checks: 32
Pain threshold; 53,45 mg/Kg p.o., 1 hour
  RANDALL-SELLITO pain threshold over checks: 47
Pain threshold; 53,45 mg/Kg p.o., 2 hours
  RANDALL-SELLITO pain threshold over checks: 16
[2]
  % inhibition: 32%

## CC=CCC(C(=O)O)c1ccc(-c2ccccc2)cc1 (single isomer, unassigned; (+)) [SCR 152, (+) 2-(4-biphenylyl)-4-hexenoic acid]
Carragenine edema; 50 mg/Kg p.o., 50 mg/kg
  % edema inhibition: 54%
Carragenine edema; 100 mg/Kg p.o., 100 mg/kg
  % edema inhibition: 52%
Carragenine edema; 200 mg/Kg p.o., 200 mg/kg
  % edema inhibition: 66%
Kaolin edema; 50 mg/Kg p.o., 50 mg/kg
  % edema inhibition: 19%
Kaolin edema; 100 mg/Kg p.o., 100 mg/kg
  % edema inhibition: 40%
Kaolin edema; 200 mg/Kg p.o., 200 mg/kg
  % edema inhibition: 40%
Yeast edema; 50 mg/Kg p.o.
  % edema inhibition: 13%
Yeast edema; 100 mg/Kg p.o., 100 mg/kg
  % edema inhibition: 25%
Yeast edema; 200 mg/Kg p.o., 200 mg/kg
  % edema inhibition: 17%
Serotonin edema; 50 mg/Kg p.o., 50 mg/kg
  % edema inhibition: 3%
Serotonin edema; 100 mg/Kg p.o., 100 mg/kg
  % edema inhibition: 3%
Serotonin edema; 200 mg/Kg p.o., 200 mg/kg
  % edema inhibition: 17%
Dextrose edema; 50 mg/Kg p.o., 50 mg/kg
  % edema inhibition: 12%
Dextrose edema; 100 mg/Kg p.o., 100 mg/kg
  % edema inhibition: 39%
Dextrose edema; 200 mg/Kg p.o., 200 mg/kg
  % edema inhibition: 45%
[6]
  Effect on the capillary permeability, .0. m.micron: 21.57 m.micron
[7]
  Effect on the capillary permeability, .0. m.micron: 8.00 m.micron
[8]
  % inhibition: 12%
[2]
  % inhibition: 31%
[2]; dose of 50 mg
  anti-inflammatory effect (in words): rather good anti-inflammatory effect
Ulcerogenic effect
  ulcerogenic effect: exhibits none ulcerogenic effect
[9]
  Effect on the capillary permeability, .0. m.micron: 17.71 m.micron
